Source: ChEMBL document CHEMBL3244171, “[1-(beta-mercapto-beta,beta-cyclopentamethylenepropionic acid),4-valine,-8-D-arginine]vasopressin, a potent and selective inhibitor of the vasopressor response to arginine-vasopressin” (J Med Chem, 1978)
Where a SMILES comes first, the peptide text is derived from it.

Key:
[1] = Antioxytocic activity in rat uterus assessed as antagonist activity on oxytocin-induced effect; format: functional, tissue-based
[2] = tested on: Rattus norvegicus; assay: Antidiuretic activity in iv dosed rat assessed as agonist activity on arginine-vasopressin-induced effect; format: functional, Urine

In the case of CC(C)[C@@H]1NC(=O)[C@H](Cc2ccccc2)NC(=O)[C@H](Cc2ccc(O)cc2)NC(=O)CC(C)(C)SSC[C@@H](C(=O)N2CCC[C@H]2C(=O)N[C@H](CCCNC(=N)N)C(=O)NCC(N)=O)NC(=O)[C@H](CC(N)=O)NC1=O (HELM PEPTIDE1{Y.F.V.N.C.P.[dR].G.[am]}|CHEM1{[CC(C)(CC(=O)[*:1])S[*:2]]}$PEPTIDE1,CHEM1,1:R1-1:R1|PEPTIDE1,CHEM1,5:R3-1:R2$$$V2.0), the pA2 [1] is reported as 7.23.

Compound CC(C)[C@@H]1NC(=O)[C@H](Cc2ccccc2)NC(=O)[C@H](Cc2ccc(O)cc2)NC(=O)CC2(CCCCC2)SSC[C@@H](C(=O)N2CCC[C@H]2C(=O)N[C@H](CCCN=C(N)N)C(=O)NCC(N)=O)NC(=O)[C@H](CC(N)=O)NC1=O (HELM PEPTIDE1{Y.F.V.N.C.P.[dR].G.[am]}|CHEM1{[O=C(CC1(S[*:2])CCCCC1)[*:1]]}$PEPTIDE1,CHEM1,1:R1-1:R1|PEPTIDE1,CHEM1,5:R3-1:R2$$$V2.0) has an Activity [2] of 0.1 U/ml and a pA2 [1] of 6.62.
